Measured values taken from article PMC11211886 (Frontiers in Pharmacology, 2024).
Where “and” joins values, the source holds several entries; their conditions need not be identical. Equal values may be shown once.

Experiments:
[1] = molecular target: T1, BCRP (Homo sapiens, UniProt Q9UNQ0); assay: in vitro; conditions: human
T1 sequence (Q9UNQ0 1-655): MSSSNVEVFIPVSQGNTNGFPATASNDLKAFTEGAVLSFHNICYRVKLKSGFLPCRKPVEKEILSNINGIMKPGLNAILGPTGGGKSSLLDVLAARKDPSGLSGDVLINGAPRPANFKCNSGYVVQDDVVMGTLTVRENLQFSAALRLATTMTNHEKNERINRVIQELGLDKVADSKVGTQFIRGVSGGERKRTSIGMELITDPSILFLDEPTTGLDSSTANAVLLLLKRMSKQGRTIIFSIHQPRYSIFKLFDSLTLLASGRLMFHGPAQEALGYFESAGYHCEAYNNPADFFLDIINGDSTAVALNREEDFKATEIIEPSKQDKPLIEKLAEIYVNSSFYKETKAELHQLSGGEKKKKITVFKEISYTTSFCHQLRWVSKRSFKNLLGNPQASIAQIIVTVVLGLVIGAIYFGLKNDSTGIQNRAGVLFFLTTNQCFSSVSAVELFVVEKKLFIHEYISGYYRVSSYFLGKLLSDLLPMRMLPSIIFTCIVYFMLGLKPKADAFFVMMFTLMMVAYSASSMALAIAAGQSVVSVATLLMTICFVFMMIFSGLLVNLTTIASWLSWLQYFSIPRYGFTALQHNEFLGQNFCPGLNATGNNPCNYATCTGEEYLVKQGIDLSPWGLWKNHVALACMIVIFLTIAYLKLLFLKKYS
Excerpt: (§1) The experimental conditions were similar to those of the permeability study.

[2] = molecular target: P-gp (Homo sapiens, UniProt P08183); assay: P-gp inhibition, digoxin transport across Caco-2 monolayers
Excerpt: as §1

[3] = molecular target: T2, CYP2E1 (Homo sapiens, UniProt P05181); assay: Reversible CYP inhibition in HLM, CYP2E1 (chlorzoxazone); type: in vitro ADME; conditions: for enzyme activity remaining: CYP2E1, HLM
T2 construct: tissue Life Technologies (Durham, NC, USA); host or cells: human liver microsomes
Method: The markers used to determine the activities of CYP isoforms were phenacetin O-deethylation for CYP1A2 (probe substrate: 50 µM phenacetin), bupropion hydroxylation for CYP2B6 (probe substrate: 70 µM bupropion), paclitaxel 6α-hydroxylation for CYP2C8 (probe substrate: 10 µM paclitaxel), diclofenac 4′-hydroxylation for CYP2C9 (probe substrate: 5 µM diclofenac), S-(+)-mephenytoin 4′-hydroxylation for CYP2C19 (probe substrate: 20 µM S-(+)-mephenytoin), dextromethorphan O-demethylation for CYP2D6 (probe substrate: 6 µM dextromethorphan), chlorzoxazone 6′-hydroxylation for CYP2E1 (probe substrate: 70 µM chlorzoxazone), and testosterone 6β-hydroxylation and midazolam 1′-hydroxylation for CYP3A4/5 (probe substrate: 45 µM testosterone and 5 µM midazolam). […] Alpha-naphthoflavone (0.04 µM), 2-phenyl-2-(1-piperidinyl)propane (5 µM), quercetin (1 µM), sulfaphenazole (0.5 µM), ticlopidine (4 µM), quinidine (0.2 µM), diethyldithiocarbamate (20 µM), and ketoconazole (0.05 µM) were used as positive inhibitors of CYP1A2, 2B6, 2C8, 2C9, 2C19, 2D6, 2E1, and 3A4, respectively. The vehicle control was prepared in the same composition as inhibitor solutions but free of inhibitors. The concentrations of probe substrates were close to Km values that were determined in-house and within the range recommended by the FDA ([Huang et al., 2007]). Reaction mixtures were incubated at 37°C for 5, 20, or 30 min, depending on the probe substrates of CYP isoforms. The reactions were terminated by adding cold acetonitrile containing IS, and the terminated incubation mixtures were centrifuged at 3,000 g for 10 min before LC-MS/MS analysis.

[4] = molecular target: T3, CYP2C9 (Homo sapiens, UniProt P11712); assay: Time-dependent CYP inhibition in HLM, CYP2C9; type: in vitro ADME; conditions: 10 μM, 30 min pre-incubation with NADPH
T3 construct: tissue Life Technologies (Durham, NC, USA); host or cells: human liver microsomes
Method: The procedure of time-dependent CYP inhibition was similar to that used for CYP reversible inhibition, as mentioned above, except that a pre-incubation step was added. […] Another appropriate volume of the NADPH-regenerating system and probe substrate were added to initiate the CYP isoform enzyme activity test step. For this step, the incubation period was 10 min, except for CYP2B6, CYP2C8, and CYP3A4/5 (probe substrate: midazolam), which was 3 min to make sure the reaction was under initial linear rates. After incubation for the designated time periods at 37°C, the ice-cold acetonitrile containing IS was added to quench the reaction. […] (Ainactivator/[…] represents the enzyme activity remaining due to the inhibition by the diluted inactivator in the enzyme activity test step, and (Ainactivator/[…] represents the remaining enzyme activity due to pre-incubation loss plus inhibition by the diluted inactivator in the enzyme activity test step.

Chain of P-gp (P08183 whole entry): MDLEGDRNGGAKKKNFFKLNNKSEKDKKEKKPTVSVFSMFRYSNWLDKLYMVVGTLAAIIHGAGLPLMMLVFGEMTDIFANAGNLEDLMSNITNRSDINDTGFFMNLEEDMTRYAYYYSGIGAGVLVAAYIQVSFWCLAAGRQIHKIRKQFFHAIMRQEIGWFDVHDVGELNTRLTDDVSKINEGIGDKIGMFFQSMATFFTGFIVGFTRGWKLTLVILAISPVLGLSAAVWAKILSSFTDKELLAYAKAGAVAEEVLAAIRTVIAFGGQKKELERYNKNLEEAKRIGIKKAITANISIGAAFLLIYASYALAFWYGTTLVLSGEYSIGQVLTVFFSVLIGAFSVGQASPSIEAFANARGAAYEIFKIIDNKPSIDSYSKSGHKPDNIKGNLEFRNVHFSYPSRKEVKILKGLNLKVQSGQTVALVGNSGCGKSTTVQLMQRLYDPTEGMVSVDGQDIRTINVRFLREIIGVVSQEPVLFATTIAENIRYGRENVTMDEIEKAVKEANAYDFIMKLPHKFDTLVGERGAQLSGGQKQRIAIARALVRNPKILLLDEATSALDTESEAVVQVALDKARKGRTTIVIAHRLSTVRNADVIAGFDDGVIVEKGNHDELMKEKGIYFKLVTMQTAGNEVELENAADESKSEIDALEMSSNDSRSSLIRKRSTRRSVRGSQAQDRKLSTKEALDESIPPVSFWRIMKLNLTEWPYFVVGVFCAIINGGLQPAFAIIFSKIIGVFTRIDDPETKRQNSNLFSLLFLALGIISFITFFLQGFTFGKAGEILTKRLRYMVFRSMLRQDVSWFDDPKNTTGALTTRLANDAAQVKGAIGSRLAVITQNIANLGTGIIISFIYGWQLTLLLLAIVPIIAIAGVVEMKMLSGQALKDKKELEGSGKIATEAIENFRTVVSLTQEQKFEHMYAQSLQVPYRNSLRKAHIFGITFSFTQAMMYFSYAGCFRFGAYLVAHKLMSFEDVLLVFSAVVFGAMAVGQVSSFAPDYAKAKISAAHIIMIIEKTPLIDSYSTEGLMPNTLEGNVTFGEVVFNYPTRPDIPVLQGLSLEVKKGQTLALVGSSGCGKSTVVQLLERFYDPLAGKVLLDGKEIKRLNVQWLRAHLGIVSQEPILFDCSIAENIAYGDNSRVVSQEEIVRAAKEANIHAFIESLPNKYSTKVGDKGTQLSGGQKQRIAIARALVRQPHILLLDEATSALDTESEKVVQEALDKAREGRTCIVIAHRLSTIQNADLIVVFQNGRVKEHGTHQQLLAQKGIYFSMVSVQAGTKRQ
T2 sequence (P05181 whole entry): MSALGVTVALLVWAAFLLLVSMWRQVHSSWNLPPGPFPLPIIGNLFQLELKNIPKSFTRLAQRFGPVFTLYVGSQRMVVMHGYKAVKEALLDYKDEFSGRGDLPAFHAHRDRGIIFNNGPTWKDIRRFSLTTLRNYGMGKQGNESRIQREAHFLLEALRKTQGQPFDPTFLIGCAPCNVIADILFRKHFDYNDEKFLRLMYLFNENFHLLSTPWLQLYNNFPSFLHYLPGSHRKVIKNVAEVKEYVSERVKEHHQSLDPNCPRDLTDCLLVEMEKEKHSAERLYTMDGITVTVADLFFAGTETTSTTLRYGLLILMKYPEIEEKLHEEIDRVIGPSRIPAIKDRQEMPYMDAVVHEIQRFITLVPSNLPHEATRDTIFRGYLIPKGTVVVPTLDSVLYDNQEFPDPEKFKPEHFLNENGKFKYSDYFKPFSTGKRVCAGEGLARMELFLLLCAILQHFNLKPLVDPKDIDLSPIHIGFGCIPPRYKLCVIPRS
T3 sequence (P11712 whole entry): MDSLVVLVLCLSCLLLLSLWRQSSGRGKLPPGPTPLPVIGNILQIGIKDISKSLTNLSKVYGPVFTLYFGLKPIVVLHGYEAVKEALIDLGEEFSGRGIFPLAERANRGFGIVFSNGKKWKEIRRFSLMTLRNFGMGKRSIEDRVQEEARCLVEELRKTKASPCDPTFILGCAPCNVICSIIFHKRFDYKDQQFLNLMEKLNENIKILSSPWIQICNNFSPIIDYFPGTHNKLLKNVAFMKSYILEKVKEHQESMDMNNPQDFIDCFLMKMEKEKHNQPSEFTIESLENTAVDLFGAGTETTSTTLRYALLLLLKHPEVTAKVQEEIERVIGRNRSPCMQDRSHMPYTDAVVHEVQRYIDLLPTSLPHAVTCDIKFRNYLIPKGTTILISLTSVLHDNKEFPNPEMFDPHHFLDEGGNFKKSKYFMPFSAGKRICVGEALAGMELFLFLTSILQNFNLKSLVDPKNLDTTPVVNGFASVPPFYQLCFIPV

Structure (SMILES): C[C@H](Nc1ncnc(N)c1C#N)c1cc2ncc(Cl)n2nc1-c1ccccc1 [Amdizalisib]
- inhibition at 60 min, 0.1 µM [1]: 28.5%
- inhibition at 60 min, 0.5 µM [1]: 34.2%
- inhibition at 60 min, 2 µM [1]: 21.3%
- inhibition at 60 min, 5 µM [1]: 24.2%
- inhibition at 60 min, 10 µM [1]: 43.6%
- inhibition at 60 min, 40 µM [1]: 52.9%
- inhibition at 60 min, 60 µM [1]: 66.4%
- inhibition at 60 min, 80 µM [1]: 52%
- IC50 [2]: 22.9 µM
- inhibition at 60 min, 0.5 µM ([2]; human): -3.22%
- inhibition at 60 min, 2 µM ([2]; human): 1.75%
- inhibition at 60 min, 5 µM ([2]; human): 17%
- inhibition at 60 min, 20 µM ([2]; human): 46.5%
- inhibition at 60 min, 40 µM ([2]; human): 58.4%
- inhibition at 60 min, 60 µM ([2]; human): 75.9%
- inhibition at 60 min, 80 µM ([2]; human): 83.6%
- enzyme activity remaining ([3]; 0.08 μM): 99.7% and 97.6%
- enzyme activity remaining ([3]; 0.4 μM): 99.0% and 96.9%
- enzyme activity remaining ([3]; 2 μM): 101% and 95.5%
- enzyme activity remaining ([3]; 10 μM): 105% and 97.6%
- enzyme activity remaining ([3]; 50 μM): 118% and 113%
- IC50 ([3]; HLM, reversible, without pre-incubation): > 50 µM
- activity loss of CYP2C9 [4]: 14.6%
